Assays:
Type in all cases: functional, Cricetulus griseus
Cricetinae gen. sp. [1] = assay: Compound was evaluated for the percent reduction in liver cholesterol ester levels in cholesterol fed hamster model at 10 mg/kg
Cricetinae gen. sp. [2] = assay: Compound was evaluated for the percent reduction in liver cholesterol ester levels in cholesterol fed hamster model at […]
Cricetinae gen. sp. [3] = assay: Compound was evaluated for the percent reduction in liver cholesterol ester levels in cholesterol fed hamster model at 10 mpk
Cricetinae gen. sp. [4] = assay: Compound was evaluated for the percent reduction in liver cholesterol ester levels in cholesterol fed hamster model at 1 mg/kg
Cricetinae gen. sp. [5] = assay: Compound was evaluated in vivo for the cholesterol lowering activity in hamster model
Cricetinae gen. sp. [6] = assay: Compound was evaluated for the percent reduction in liver cholesterol ester levels in cholesterol fed hamster model at 0.3 mg/kg

COc1ccc([C@@H]2N(c3ccccc3)C(=O)[C@]2(C)[C@@H](O)COc2ccc(F)cc2)cc1 (racemic)
L/CE (Cricetinae gen. sp. [1]): -48%

O=C1[C@@H]([C@H](O)COc2ccc(F)cc2)[C@@H](c2ccc(O)cc2)N1c1ccc(F)cc1
L/CE (Cricetinae gen. sp. [2]): 0%

O=C1[C@H]([C@@H](O)COc2ccc(F)cc2)[C@H](c2ccc(O)cc2)N1c1ccc(F)cc1 (racemic)
L/CE (Cricetinae gen. sp. [3]): -39%

COc1ccc([C@@H]2[C@@H]([C@H](O)COc3ccc(F)cc3)C(=O)N2c2ccccc2)cc1 (racemic)
L/CE (Cricetinae gen. sp. [4]; 1 mg/kg): -57%

O=C1[C@H]([C@H](O)COc2ccc(F)cc2)[C@@H](c2ccc(O)cc2)N1c1ccc(F)cc1 (racemic)
L/CE (Cricetinae gen. sp. [4]): -38%
ED50 (Cricetinae gen. sp. [5]): 0.7 MPK

O=C1[C@H]([C@H](O)COc2ccc(F)cc2)[C@@H](c2ccc(O)cc2)N1c1ccc(F)cc1
L/CE (Cricetinae gen. sp. [6]): -70%
ED50 (Cricetinae gen. sp. [5]): 0.27 MPK

COc1ccc([C@@H]2[C@@H]([C@H](O)COc3ccc(F)cc3)C(=O)N2c2ccccc2)cc1
L/CE (Cricetinae gen. sp. [4]; 1 mg/kg): -84%
ED50 (Cricetinae gen. sp. [5]; Cricetinae gen. sp., read-out: ED50): 0.3 mg/kg
